How the values were obtained:
Trypanosoma cruzi [1] = assay: GSK_TCAKS: pIC50 Trypanosoma cruzi viability assay using beta-GAL activity. This assay was run at single shot at 5uM compound concentration per well. The biological reagents consisted of NIH-3T3 host cells and trypomastigotes parasitic cells; both cell types were set to a 3.3 * 10^5 cells/mL dilution in assay DMEM by means of a CASY cell counter device using a 60um capillary. 6 uL of the mixture were dispensed per well (about 1 * 10^3 host-cells and 1 * 10^3 parasites) with a Multidrop Combi dispenser. […] In all wells, the percentage of DMSO never exceeded 0.5%. Plates incubated for four days at 37C, 5% CO2. The substrate used for the assay fluorescence intensity (FLINT) readout was resorufin-beta-D-galactopiranoside (Sigma-Aldrich) at 5uM per well. It was diluted in PBS supplemented with the soft detergent Igepal (Fluka).; assay type: functional, organism-based, Mus musculus; conditions: Tulahuen, NIH3T3
Trypanosoma cruzi [2] = assay: (§1) GSK_TCAKS: pIC50 Trypanosoma cruzi Imaging: Infected Cells. […] Cells were then washed once with PBS before infection. T. cruzi trypomastigotes, collected at days 5 to 8 after infection from LLC-MK2 parasite infected cultures, were allowed to swim out for 4h at 37C from a centrifuged pellet (2,500 rpm/10 min/room temperature). Trypomastigotes were then collected and counted in a CASY Cell Counter. Trypomastigotes, in supplemented DMEM, were added to H9c2 cultures in a multiplicity of infection of 1 and incubated for 18 h. Cells were washed once with PBS before incubation of the infected H9c2 monolayer with trypsin (Life-Technologies) to detach cells from the flask. Cells were counted in a CASY Cell Counter using a 150 um capillary and their density set at 5 * 10^4 cells per mL in supplemented assay DMEM. Infected H9c2 were dispensed into 384-well poly-lysine coated assay plates at 50uL per well using a Multidrop Combi dispenser. After seeding them, the plates were incubated at 37C, 5% CO2 for 72h. Cultures were then fixed and stained by addition of 50 uL of a solution containing 8% formaldehyde and 4 uM DRAQ5 DNA dye (BioStatus, UK) per well. […] Five images were collected per well for reliable statistical analysis. Automated image analysis was performed with a script developed on Acapella High Content Imaging and Analysis Software (PerkinElmer). Output: percentage of infected cells per well as a second infection marker.; assay type: functional, organism-based, Rattus norvegicus; conditions: H9c2, 4 h
Trypanosoma cruzi [3] = assay: GSK_TCAKS: pIC50 Trypanosoma cruzi Imaging: Amastigotes/Cell. […] Cells were then washed once with PBS before infection. T. cruzi trypomastigotes, collected at days 5 to 8 after infection from LLC-MK2 parasite infected cultures, were allowed to swim out for 4h at 37C from a centrifuged pellet (2,500 rpm/10 min/room temperature). Trypomastigotes were then collected and counted in a CASY Cell Counter. Trypomastigotes, in supplemented DMEM, were added to H9c2 cultures in a multiplicity of infection of 1 and incubated for 18 h. Cells were washed once with PBS before incubation of the infected H9c2 monolayer with trypsin (Life-Technologies) to detach cells from the flask. Cells were counted in a CASY Cell Counter using a 150 um capillary and their density set at 5 * 10^4 cells per mL in supplemented assay DMEM. Infected H9c2 were dispensed into 384-well poly-lysine coated assay plates at 50uL per well using a Multidrop Combi dispenser. After seeding them, the plates were incubated at 37C, 5% CO2 for 72h. Cultures were then fixed and stained by addition of 50 uL of a solution containing 8% formaldehyde and 4 uM DRAQ5 DNA dye (BioStatus, UK) per well. […] Five images were collected per well for reliable statistical analysis. Automated image analysis was performed with a script developed on Acapella High Content Imaging and Analysis Software (PerkinElmer). Output: number of amastigotes per cell as infection level measurement.; assay type: functional, organism-based, Rattus norvegicus; conditions: H9c2, 4 h
Trypanosoma cruzi [4] = assay: as §1, with “H2C9” for “Trypanosoma cruzi”, “H9c2 Host Cardiomyocytes.” for “Infected Cells.”, “Number” for “percentage”, “H9c2 Host Cardiomyocytes nuclei to determine drug-related cytotoxicity.” for “infected cells per well as a second infection marker.”; assay type: functional, organism-based, Rattus norvegicus; conditions: H9c2, 4 h
Leishmania donovani [5] = assay: GSK_TCAKS: pIC50 Leishmania donovani viability assay using fluorescence intensity. Assay plates (1536-well) were prepared by adding 30nL per well of compound. For single shot assay, the final compound concentration was 5uM. […] Briefly, eGFP LdBOB axenic amastigotes were harvested, fixed and counted in a CASY cell counter (Roche-Applied Science). A final concentration of 1.5 * 10^5 cells per well were prepared in amastigote media containing 500 U/mL penicillin/streptomycin (Invitrogen) and 6uL was dispensed to each experimental well using a Multidrop Combi dispenser (Thermo Scientific). 6uL of assay media was dispensed to control columns used as reference for 100% compound response. Following incubation for 72 h at 37C, 5% CO2, 2 uL of resazurin was added to each well at a final concentration of 0.5 mM in phosphate buffered saline (PBS) with IGEPAL (Sigma-Aldrich), 0.05% (v/v).; assay type: functional, organism-based
Leishmania donovani [6] = assay: (§2) GSK_TCAKS: pIC50 Leishmania donovani Imaging: Infected Macrophages. Assay plates (384-well) were prepared by adding 250nL of compound to each well. For single shot assay, the final compound concentration was 5 uM. […] Automated image analysis was performed with a script developed on Acapella High Content Imaging and Analysis Software (PerkinElmer). Output: Percent of infected macrophage cells were reported for each well.; assay type: functional, organism-based, Homo sapiens; conditions: THP-1
Leishmania donovani [7] = assay: as §2, with “Amastigotes/Macrophages.” for “Infected Macrophages.”, “Average number” for “Percent”, “amastigotes per” for “infected”, “cell” for “cells”; assay type: functional, organism-based, Homo sapiens; conditions: THP-1
Leishmania donovani [8] = assay: as §2, with “THP-1 Host” for “Infected”, “THP-1 cell count” for “Percent of infected macrophage cells”; assay type: functional, organism-based, Homo sapiens
[9] = test system: Trypanosoma brucei brucei; assay: GSK_TCAKS: pIC50 Trypanosoma brucei viability assay using fluorescence intensity. Assay plates (1536-well) were prepared by dispensing 25nL of compound solution per well using an Echo acoustic dispenser (Labcyte).; assay type: functional, organism-based; conditions: Lister 427, 2 h
[10] = test system: Trypanosoma brucei brucei; assay: GSK_TCAKS: pIC50 Trypanosoma brucei viability assay using luminiscence. Assay plates (1536-well) were prepared. T. brucei cultures were harvested and counted in a CASY cell counter. A parasite suspension was prepared at a final concentration of 5 * 10^4 cells/mL in complete HMI9 medium and 6uL was dispensed to all wells containing compounds using a Multidrop Combi dispenser. 6uL of HMI9 media with 0.4% DMSO were dispensed to control columns. Plates were incubated for 24 h at 37C, 5% CO2 then tempered for 10 min at room temperature. ATP content was quantified by adding 4 uL of CellTiter-Glo Reagent (Promega) according to the manufacturer's instructions. Luminescence was measured using a ViewLux.; assay type: functional, organism-based; conditions: Lister 427, CASY
[11] = GSK_TCAKS: pIC50 HepG2 human cell line viability assay using luminiscence. […] Seeding density was checked to ensure that new mono-layers were not more than 50% confluent at the time of harvesting. Cell suspension was added to 500 mL of the same medium at a final density of 1.2 * 10^5 cells/mL. This cell suspension was dispensed (25 uL, 3000 cells per well) into 384-well clear-bottom plates using a Multidrop Combi dispenser. Prior to addition of the cell suspension, the screening compounds (250 nL) were pre-dispensed into the plates with an Echo liquid handler. Plates were incubated for 48 h at 37C, 5% CO2. After incubation, plates equilibrated at room temperature for 30 min before proceeding to develop the luminescent signal. The signal developer, CellTiter-Glo Reagent, was allowed to equilibrate at room temperature for 30 min and added to the plates (25uL per well) using a Multidrop Combi dispenser. Plates were left for 10 min at room temperature for stabilization and then read using a ViewLux.; assay type: toxicity, cell-based
NIH3T3 = assay: GSK_TCAKS: pIC50 NIH 3T3 cell line viability assay using luminiscence. Tissue culture surface treated assay plates (1536-well) were used. […] The 100% cells survival control was determined exposing the host-cells to a 0.5% DMSO concentration, whereas the 100% toxicity control was achieved by seeding the cells in presence of Amphotericin B at 50uM. Plates were incubated for four days at 37C, 5% CO2. The assay readout was developed by addition of 5uL of CellTiter-Glo Reagent following the manufacturer's instructions. Luminiscence was measured using a ViewLux.; assay type: functional, cell-based; conditions: Mus musculus, NIH3T3, 96 h
[12] = target: Sterol 14-alpha demethylase (Trypanosoma cruzi (strain CL Brener), UniProt Q7Z1V1); assay: GSK_TCAKS: pIC50 CYP51 from Trypanosoma cruzi.; assay type: functional
Sequence of Sterol 14-alpha demethylase (Q7Z1V1 whole entry): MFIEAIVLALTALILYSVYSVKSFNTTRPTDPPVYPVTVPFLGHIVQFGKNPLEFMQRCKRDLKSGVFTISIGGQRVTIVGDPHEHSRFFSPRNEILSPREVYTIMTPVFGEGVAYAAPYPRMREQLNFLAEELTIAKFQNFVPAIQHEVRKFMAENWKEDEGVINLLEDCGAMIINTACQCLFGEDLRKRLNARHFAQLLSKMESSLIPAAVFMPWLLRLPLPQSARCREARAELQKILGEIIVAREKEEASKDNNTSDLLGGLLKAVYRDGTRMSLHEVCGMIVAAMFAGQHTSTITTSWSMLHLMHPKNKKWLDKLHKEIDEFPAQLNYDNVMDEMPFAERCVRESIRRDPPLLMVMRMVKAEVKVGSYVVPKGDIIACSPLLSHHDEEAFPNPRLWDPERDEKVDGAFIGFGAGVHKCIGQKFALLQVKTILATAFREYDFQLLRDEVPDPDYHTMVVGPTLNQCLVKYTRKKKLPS

| SMILES | IC50 (Trypanosoma cruzi [1]) [µM] | IC50 (Trypanosoma cruzi [2]) [µM] | IC50 (Trypanosoma cruzi [3]) [µM] | IC50 (Trypanosoma cruzi [4]) [µM] | IC50 (Leishmania donovani [5]) [µM] | IC50 (Leishmania donovani [6]) [µM] | IC50 (Leishmania donovani [7]) [µM] | IC50 (Leishmania donovani [8]) [µM] | IC50 [9] [µM] | IC50 [10] [µM] | IC50 at 48 h [11] [µM] | IC50 (NIH3T3) [µM] | IC50 [12] [µM] |
| --- | --- | --- | --- | --- | --- | --- | --- | --- | --- | --- | --- | --- | --- |
| Cc1ccc(CNC2CCN(C[C@@H]3Cn4c(=O)ccc5ccc(=O)n3c54)CC2)cc1F | 1.26 | 1.26 | 1 | > 50.1 | > 50.1 | > 50.1 | > 50.1 | > 50.1 | 1.58 | 2 | > 100 | 15.8 | > 100 |
| CS(=O)(=O)c1cccc(CNC(=O)c2cncc(N3CCN(c4ccc(F)cc4)CC3)c2)c1 | 0.631 | 0.398 | 0.251 | > 50.1 | > 50.1 | > 50.1 | > 50.1 | > 50.1 | 31.6 | > 39.8 | > 100 | 25.1 | 12.6 |
| O[C@H]1CC[C@H](Nc2nccc(-c3sc(C4CCOCC4)nc3-c3ccc(F)c(F)c3)n2)CC1 | 0.316 | 0.316 | 0.2 | 31.6 | 3.16 | 5.01 | 2.51 | 20 | 2 | 3.98 | 25.1 | 39.8 | > 100 |
| O=c1oc2ccccc2n1C1CCN(Cc2ccccc2-c2cccnc2)CC1 | 0.501 | 0.316 | 0.398 | > 50.1 | > 50.1 | > 50.1 | 6.31 | 12.6 | 39.8 | > 39.8 | > 100 | 15.8 | 0.1 |
| Cc1c(C(C)NC(=O)Nc2cccc(Cl)c2)sc2ncnn12 (stereo not drawn) | 0.141 | 0.2 | 0.158 | > 50.1 | 2 | > 50.1 | 2 | > 50.1 | 20 | > 39.8 | > 100 | > 50.1 | 0.126 |
| O=C(c1cccc(Cl)c1Cl)N1CCn2c1nc(-c1ccncc1)cc2=O | 0.178 | 0.316 | 0.316 | > 50.1 | 50.1 | > 50.1 | 31.6 | > 50.1 | 15.8 | 31.6 | > 100 | 20 | 0.0631 |
| CS(=O)(=O)c1cccc(-c2cnc(N)c3c(-c4ccc(CO)cc4)csc23)c1 | 0.794 | 0.631 | 0.316 | > 50.1 | 39.8 | 10 | 7.94 | > 50.1 | 2 | 5.01 | > 100 | 25.1 | 3.16 |
| O=C(NCCc1ccccn1)C(c1cn[nH]c1)N1CCN(c2ccc(Cl)c(Cl)c2)CC1 (stereo not drawn) | 0.1 | 0.158 | 0.126 | > 50.1 | 2.51 | > 50.1 | 20 | > 50.1 | 12.6 | > 39.8 | > 100 | 31.6 | 0.126 |
| COc1ccc(-c2ccc3nnc(-c4ccc(O)c(OC)c4)n3c2)cn1 | 1.26 | 3.16 | 2 | > 50.1 | 3.98 | > 50.1 | > 50.1 | > 50.1 | 2 | 2.51 | > 100 | 50.1 | > 100 |
| COc1cc(-c2nc(N3CCOCC3)sc2-c2ccnc(NC3CCOCC3)n2)ccc1Cl | 0.251 | 0.158 | 0.1 | > 50.1 | > 50.1 | > 50.1 | 0.02 | > 50.1 | 15.8 | > 39.8 | > 100 | > 50.1 | > 100 |
| CN(C)c1ncc(-c2cncn2CCOc2ccc(Cl)cc2)cn1 | 0.224 | 0.251 | 0.2 | > 50.1 | > 50.1 | > 50.1 | > 50.1 | > 50.1 | > 39.8 | > 39.8 | > 100 | 39.8 | 0.0501 |
| CCC(c1ccc(F)cc1)n1cncc1-c1cnn(C)c1 (stereo not drawn) | 0.2 | 0.316 | 0.316 | > 50.1 | > 50.1 | > 50.1 | > 50.1 | > 50.1 | > 39.8 | > 39.8 | > 100 | 25.1 | 0.0794 |
| O=C(Nc1ncc([N+](=O)[O-])s1)C1CC1 | 0.398 | 1 | 0.398 | > 50.1 | 39.8 | > 50.1 | > 50.1 | > 50.1 | 7.94 | 39.8 | > 100 | 31.6 | > 100 |
| CC(=Cc1ccccc1)CN1CCC(=O)N(Cc2cccnc2)CC1 | 0.251 | 0.501 | 0.501 | > 50.1 | > 50.1 | > 50.1 | 31.6 | 39.8 | > 39.8 | > 39.8 | > 100 | > 50.1 | 0.1 |
| CN1CCN(c2nc(-c3ccc(Cl)cc3)c3c(N)n(C)nc3n2)CC1 | 2 | 1 | 0.794 | 25.1 | > 50.1 | 39.8 | 31.6 | 39.8 | 12.6 | 31.6 | 79.4 | 25.1 | > 100 |
| COc1ccc(C)cc1-c1csc(NC(=O)C(C)n2ccnc2)n1 (stereo not drawn) | 0.0708 | 0.1 | 0.1 | > 50.1 | 3.16 | > 50.1 | > 50.1 | > 50.1 | 25.1 | > 39.8 | > 100 | 50.1 | 0.0398 |
